The target in one assay is T1, dopamine D1 receptor (Homo sapiens, UniProt P21728).
T1 construct: Dopamine D1 receptor gene cloned in pcDNA 3.1 was kindly provided by Dr. Olivier Civelli; expressed in transfected cells
Description: CRE-luciferase reporter gene assay in HEK-D1/CRE/Luc2P cells. As to conditions: for antagonist profile in luciferase reporter gene assay: concentration-response, Figure 4A / Figure S3; for antagonist profile in luciferase reporter gene assay / Emax: dopamine 2 nM; for Emax: read-out: % Maximal Inhibition Mean ± SD (N = 3), Luciferase; for inhibition at 12.5 µM: single screening concentration 12.5 μM, read-out: inhibition in single-concentration screening (activity threshold). Format: cell-based. The text has this: The cDNA plasmids of dopamine D1 receptor and CRE/Luci were stably co-transfected into human embryonic kidney-293 cells (HEK293) cells (HEK-D1/CRE/Luc2P). Activation of D1 receptors leads to the elevation of cAMP and activates the cAMP response element (CRE) and therefore induces the expression of the reporter gene luciferase. We used the natural ligand dopamine as a positive control to select the cell colony and to optimize and characterize the HEK-D1/CRE/Luc2P cell system.
(§1) The pGL4.29 (CRE/luc2P//Hygro) luciferase reporter gene was stably co-transfected with dopamine D1 receptor plasmid or was stably transfected individually in HEK293 cells. Transfection was carried out with lipofectamine 2000 reagent using the protocol provided by Promega. Stable cells expressing CRE-Luciferase and D1 receptor were selected in the presence of 700 μg/mL G418 and 200 μg/mL hygromycin for 10–14 days. Stable cells expressing CRE-Luciferase were singly selected in the presence of 200 μg/mL hygromycin. The obtained stable cells were then cultured with 350 μg/mL G418 and 100 μg/mL hygromycin or only 100 μg/mL hygromycin to maintain the selective growth.
(§2) The examination of CRE-luciferase activity was performed by a modification of methods as described previously. HEK293 stable cells were seeded in 96-well plates at a density of 1.5 × 10^4 cells per well. After cells became adherent, they were […] in serum-starved DMEM for different hours to explore the most suitable starving time. Cells were then pretreated with compounds for 1 h prior to dopamine stimulation. Afterwards, the cells were lysed with luciferase lysis buffer and the luminescence of the firefly luciferase was measured with the FlexStation 3 (Molecular Devices, Sunnyvale, CA, USA).
(§3) All statistical calculations were performed using GraphPad Prism 5.0 (GraphPad, Avenida, CA, USA). Data from each dose-response curve were normalized to the maximal stimulation by dopamine. At least three independent experiments were performed.
On the technique in general: Reporter assays use an easily measured gene product as a stand-in for the process of interest.

A further assay has as its target T2, human D1 receptors (Homo sapiens, UniProt P21728).
T2 construct: The cDNA plasmids of D1-like receptors were stably transfected into HEK 293T cells; expressed in transfected cells
Description: Fluorescent Ca2+ mobilization assay (FLIPR) in HEK 293T cells expressing D1 receptors and Gα15. The following applies: for antagonist profile in FLIPR assay: concentration-response, Figure 4B; for antagonist profile in FLIPR assay / % Maximal Inhibition Mean ± SD (N = 3), FLIPR: dopamine 500 nM. Format: cell-based. The method, then:
We used a fluorescent Ca^2+ mobilization assay to further evaluate the hit compounds obtained from the luciferase reporter gene assay screens. […] With the coexpression of Gα15 protein, D1 receptors can be redirected to mediate intracellular calcium mobilization upon stimulation. Calcium levels were monitored using fluorometric imaging plate reader (FLIPR). The assay can also distinguish potential antagonists from agonists.
Fluorescent Ca^2+ mobilization assay was performed using Flu-4 AM reagent as reported earlier.
as §3
In general terms: A change in cytosolic calcium serves as a functional read-out for many receptors and channels.

Another assay relates to HEK/CRE/Luc2P cells. Nature of the assay: Specificity control: forskolin-stimulated CRE-luciferase response in HEK/CRE/Luc2P negative control cells. Format: cell-based, human. The following applies: for decrease of forskolin-stimulated response (cAMP levels): forskolin 1 μM, high doses of compound, Figure S2. The method, then: HEK293 cells stably expressing cDNA plasmid of CRE/Luciferase (HEK/CRE/Luc2P) were established as the negative control cells to test the specificity to the D1 receptor for the compounds.
as §1, §2
Background: Changes in cAMP serve as a functional read-out for many G protein-coupled receptors.

The mark [1] stands for this setting: inhibition of dopamine (2 nM) response, HEK-D1/CRE/Luc2P cells, IC50 based on the degree of maximal inhibition, read-out: IC50 (μM) with 95% Confidence Intervals, Luciferase.
The mark [2] stands for this setting: inhibition of dopamine (500 nM) Ca2+ mobilization, HEK-D1/Gα15 cells, IC50 based on the degree of maximal inhibition, read-out: IC50 (μM) with 95% Confidence Intervals, FLIPR.

Read-outs that look alike come from different tables or passages of the source. Some results are limits rather than exact numbers.

T2 sequence (P21728 whole entry): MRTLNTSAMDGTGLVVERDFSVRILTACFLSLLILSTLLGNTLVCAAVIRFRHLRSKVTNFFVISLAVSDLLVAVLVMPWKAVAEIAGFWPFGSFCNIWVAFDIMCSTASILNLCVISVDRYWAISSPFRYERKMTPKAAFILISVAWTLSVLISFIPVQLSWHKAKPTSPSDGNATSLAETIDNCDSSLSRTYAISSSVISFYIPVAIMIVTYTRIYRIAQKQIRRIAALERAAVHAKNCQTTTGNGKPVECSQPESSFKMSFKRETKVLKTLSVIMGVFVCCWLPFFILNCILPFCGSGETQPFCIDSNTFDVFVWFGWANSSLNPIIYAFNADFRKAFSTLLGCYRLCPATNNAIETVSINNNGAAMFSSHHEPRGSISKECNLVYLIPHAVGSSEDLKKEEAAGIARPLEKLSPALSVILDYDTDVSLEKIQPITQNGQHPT
T1 sequence (P21728 whole entry): as above

One may read the IC50 as the concentration that inhibits the measured activity by half. For the compound `COc1cc2c(cc1OC)[C@@H]1Cc3ccc(OC)c(OC)c3CN1CC2` [Compound 2, Tetrahydropalmatine], the “antagonist profile in luciferase reporter gene assay” value on dopamine D1 receptor was “partial antagonist effects”. The Emax on dopamine D1 receptor (HEK-D1/CRE/Luc2P cells) is 72.5 ± 4%. Further, the results for the 50% inhibitory concentration (IC50) at dopamine D1 receptor (setting [1]) and on human D1 receptors (setting [2]) were 0.644 µM and 2.24 µM, respectively. Moreover, at dopamine D1 receptor, the inhibition at 12.5 µM was at least 50%. Moreover, at human D1 receptors, the “antagonist profile in FLIPR assay” value is on record as “concentration-dependent antagonist responses”. Also, the “% Maximal Inhibition Mean ± SD (N = 3), FLIPR” value (“% Maximal Inhibition Mean ± SD” below) on human D1 receptors (HEK-D1/Gα15 cells) is 92.64 ± 1.7945%.

On to `COc1cc2c(cc1O)C1Cc3ccc(OC)c(OC)c3C[N+]1(C)CC2` (stereo not shown) [Compound 10, N-methyltetrahydrocolumbamine], for which, at dopamine D1 receptor, the “antagonist profile in luciferase reporter gene assay” value is on record as “partial antagonist effects” and the inhibition at 12.5 µM is at least 50%. In addition, at dopamine D1 receptor (HEK-D1/CRE/Luc2P cells), the Emax was determined as 78.2 ± 1.78%. The IC50 on dopamine D1 receptor (setting [1]) was determined as 13.4 µM. Also, the “antagonist profile in FLIPR assay” value on human D1 receptors is “weak inhibitory effects”.

For the compound `COc1cc2c(cc1O)CC[n+]1cc3c(OC)c(OC)ccc3c(C)c1-2` [Compound 6, Dehydrocorybulbine], at dopamine D1 receptor (HEK-D1/CRE/Luc2P cells), the Emax turned out to be 97.52 ± 0.626%. Also, the figures for the IC50 on dopamine D1 receptor (setting [1]) and at human D1 receptors (setting [2]) were 0.621 µM and 0.612 µM, respectively. In addition, the inhibition at 12.5 µM at dopamine D1 receptor was at least 50%. In addition, the “antagonist profile in FLIPR assay” value at human D1 receptors is on record as “concentration-dependent antagonist responses”. The “% Maximal Inhibition Mean ± SD” value on human D1 receptors (HEK-D1/Gα15 cells) is 94.38 ± 0.1939%.

As to `COc1cc2c(cc1OC)-c1c(C)c3ccc(O)c(OC)c3c[n+]1CC2` [Compound 5, 13-methyldehydrocorydalmine], at dopamine D1 receptor (HEK-D1/CRE/Luc2P cells), the Emax was 86 ± 1.76%. Also, the figures for the IC50 at dopamine D1 receptor (setting [1]) and at human D1 receptors (setting [2]) were 10.3 µM and 3.08 µM, respectively. For the same compound, the inhibition at 12.5 µM on dopamine D1 receptor was at least 50%. The “antagonist profile in FLIPR assay” value on human D1 receptors is listed as “concentration-dependent antagonist responses”. The “% Maximal Inhibition Mean ± SD” value on human D1 receptors (HEK-D1/Gα15 cells) is 77.04 ± 6.6410%. Further, the “decrease of forskolin-stimulated response (cAMP levels)” value in the assay with HEK/CRE/Luc2P cells was 25%.

On to `COc1cc2c(cc1OC)-c1c(C)c3ccc(OC)c(OC)c3c[n+]1CC2` [Compound 7, Dehydrocorydaline], for which the Emax at dopamine D1 receptor (HEK-D1/CRE/Luc2P cells) stood at 98.23 ± 0.33%. The IC50 at dopamine D1 receptor (setting [1]) was 1.29 µM; at human D1 receptors (setting [2]), 1.53 µM. In addition, the inhibition at 12.5 µM on dopamine D1 receptor was at least 50%. Further, at human D1 receptors, the “antagonist profile in FLIPR assay” value is reported as “concentration-dependent antagonist responses”. For the same compound, the “% Maximal Inhibition Mean ± SD” value at human D1 receptors (HEK-D1/Gα15 cells) was determined as 90.61 ± 0.6541%.

On to `COc1cc2c(cc1OC)-c1cc3ccc(OC)c(OC)c3c[n+]1CC2` [Compound 8, Palmatine], for which, on dopamine D1 receptor, the IC50 amounted to 7.08 µM and the inhibition at 12.5 µM is at least 50%. The Emax on dopamine D1 receptor (HEK-D1/CRE/Luc2P cells) is 93.86 ± 0.437%. Besides, the “antagonist profile in FLIPR assay” value at human D1 receptors was “weak inhibitory effects”. In addition, the “decrease of forskolin-stimulated response (cAMP levels)” value in the assay on HEK/CRE/Luc2P cells was found to be 25%.

For the compound `COc1cc2c(cc1OC)[C@H]1[C@@H](C)c3ccc(OC)c(OC)c3CN1CC2` [Compound 4, Corydaline], the Emax on dopamine D1 receptor (HEK-D1/CRE/Luc2P cells) came out at 83.5 ± 1.45%. Also, the IC50 at dopamine D1 receptor (setting [1]) came to 2.46 µM; on human D1 receptors (setting [2]) it was 3.36 µM. Also, at dopamine D1 receptor, the inhibition at 12.5 µM was at least 50%. Besides, at human D1 receptors, the “antagonist profile in FLIPR assay” value is given as “concentration-dependent antagonist responses”. Also, on human D1 receptors (HEK-D1/Gα15 cells), the “% Maximal Inhibition Mean ± SD” value was determined as 90.32 ± 1.9817%.

As to `COc1cc2c(cc1O)-c1cc3ccc(OC)c(OC)c3c[n+]1CC2` [Compound 9, Columbamine], on dopamine D1 receptor, the IC50 was 1.21 µM and the inhibition at 12.5 µM is at least 50%. In addition, the Emax on dopamine D1 receptor (HEK-D1/CRE/Luc2P cells) stood at 97.5 ± 0.218%. Further, on human D1 receptors, the IC50 was found to be 3.4 µM and the “antagonist profile in FLIPR assay” value was “concentration-dependent antagonist responses”. Besides, the “% Maximal Inhibition Mean ± SD” value at human D1 receptors (HEK-D1/Gα15 cells) is recorded as 86.43 ± 0.7188%.

Broadly, the EC50 is the midpoint of the concentration-response curve. For `C=C[C@@]1(C)CC(=O)[C@]2(O)[C@@]3(C)[C@@H](O)CCC(C)(C)[C@@H]3[C@H](O)[C@H](OC(C)=O)[C@@]2(C)O1` [Forskolin, reference compound], in the assay with HEK/CRE/Luc2P cells (Homo sapiens, Figure S1, read-out: EC50 for increasing intracellular cAMP (CRE-luciferase)), the EC50 worked out at 1.2 µM.
